Values of other authors as cited in patent publication US20240033213A1, “TOPICAL PHARMACEUTICAL FORMULATION AND METHOD FOR THE TREATMENT OF SYNDROMES ASSOCIATED WITH CHRONIC PELVIC PAIN” (CURALEAF INTERNATIONAL LIMITED, priority 2020, published 2024).

Target: T1, TRPV1 receptor (Rattus norvegicus, UniProt O35433)
T1 construct: CBD Effects on TRPV1 Signaling Pathways in Cultured DRG Neurons; host or cells: cultured DRG sensory neurons (endogenous TRPV1)
Conditions: sensory neurons in an animal model, in vitro

T1 sequence (O35433 whole entry): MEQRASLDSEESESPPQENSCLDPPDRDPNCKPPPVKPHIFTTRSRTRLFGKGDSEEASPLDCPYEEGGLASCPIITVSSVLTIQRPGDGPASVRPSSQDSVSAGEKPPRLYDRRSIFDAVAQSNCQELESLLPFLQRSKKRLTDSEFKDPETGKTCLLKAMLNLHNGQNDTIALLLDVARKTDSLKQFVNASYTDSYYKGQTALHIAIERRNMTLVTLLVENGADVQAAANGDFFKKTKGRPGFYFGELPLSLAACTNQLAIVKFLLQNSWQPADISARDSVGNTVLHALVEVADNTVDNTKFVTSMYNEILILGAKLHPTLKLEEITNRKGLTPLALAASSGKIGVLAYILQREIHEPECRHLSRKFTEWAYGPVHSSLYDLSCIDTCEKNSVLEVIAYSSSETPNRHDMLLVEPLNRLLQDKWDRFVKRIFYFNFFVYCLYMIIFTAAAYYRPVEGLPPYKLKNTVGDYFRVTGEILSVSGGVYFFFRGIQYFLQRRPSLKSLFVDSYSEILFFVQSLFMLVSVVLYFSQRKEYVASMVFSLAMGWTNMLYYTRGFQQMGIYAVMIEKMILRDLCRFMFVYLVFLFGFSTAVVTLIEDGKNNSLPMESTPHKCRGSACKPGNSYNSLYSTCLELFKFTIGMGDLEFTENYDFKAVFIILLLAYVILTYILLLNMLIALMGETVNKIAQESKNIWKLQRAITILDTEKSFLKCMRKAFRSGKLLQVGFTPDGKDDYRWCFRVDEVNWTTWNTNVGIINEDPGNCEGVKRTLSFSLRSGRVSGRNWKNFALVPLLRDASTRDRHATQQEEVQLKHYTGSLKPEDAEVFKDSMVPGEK

SMILES: C=C(C)[C@@H]1CCC(C)=C[C@H]1c1c(O)cc(CCCCC)cc1O [cannabidiol]
- Effect on neuronal hypersensitivity following TRPV1 activation: inhibit neuronal hypersensitivity following TRPV1 activation
